In patent US7166622B2, “Substituted phenylsulfonamide inhibitors of beta amyloid production” (Wyeth, priority 2002, dated 2007):
“And” between values parts separate entries of the source, which are not always exact repeats. Equal entries are not always repeated.

What was measured:
beta amyloid production = experiment: Repressor Release Assay (RRA); format: cell-based; settings: for APPI Fold Increase / fold induction at 10 µg/mL / fold induction at 3 µg/mL: luciferase activity over diluent control; for APPI % of Example #98: relative to Example 98; for fold induction at 10 µg/mL / fold induction at 3 µg/mL: read-out: APPI Fold Increase
Method in brief: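 CHO-K1 cells transiently co-transfected with pRSVO-luc and an APP-lacI construct, replated, then treated in duplicate for 36-48 h at 37 °C, 5% CO2. Compounds diluted in 25 mM Hepes, with Hepes/1% DMSO as diluent control. Luciferase read-out in relative light units; toxicity scored 1 non-toxic, 0 toxic.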

CHO-K1 cells = experiment: Toxicity in RRA (loss of luciferase signal); settings: toxicity = loss of signal (<0.75 fold increase)
Experimental: The beta amyloid inhibitory activity of the compounds of the present invention was determined using the Repressor Release Assay (RRA).
“Fold Increase” refers to the amount of luciferase activity (measured in relative light units) over diluent control. “SEM” refers to the standard error of the mean for fold increase.

CC[C@H](C)[C@H](NS(=O)(=O)c1ccc(Br)cc1)C(O)C1CCCC1 (stereo partly drawn) [Example 146, 4-bromo-N-1-{(1S,2S)-1-[cyclopentyl(hydroxy)methyl]-2-methylbutyl}benzenesulfonamide]
APPI Fold Increase (beta amyloid production; Conc 3 μg/ml): 1.53 fold | APPI % of Example #98 (beta amyloid production; Conc 3 μg/ml): 60.66% | APPI Fold Increase (beta amyloid production; Conc 10 μg/ml): 4.26 fold and 2.33 fold | APPI % of Example #98 (beta amyloid production; Conc 10 μg/ml): 166.6% and 92.64% | (%)APPI Toxicity (CHO-K1 cells; Conc 3 μg/ml): 1 (1=non-toxic) | (%)APPI Toxicity (CHO-K1 cells; Conc 10 μg/ml): 1 (1=non-toxic)

CCCCCC(O)[C@@H](NS(=O)(=O)c1ccc(Br)cc1)[C@@H](C)CC (stereo partly drawn) [Example 147, 4-bromo-N-{(1S)-2-hydroxy-1-[(1S)-1-methylpropyl]heptyl}benzenesulfonamide]
fold induction at 10 µg/mL (beta amyloid production; Conc 10 μg/ml): 1.94 | (%)APPI Toxicity (CHO-K1 cells; Conc 10 μg/ml): 1 (1=non-toxic)

CCCCC(O)[C@@H](NS(=O)(=O)c1ccc(Br)cc1)[C@@H](C)CC (stereo partly drawn) [Example 148, 4-bromo-N-{(1S)-2-hydroxy-1-[(1S)-1-methylpropyl]hexyl}benzenesulfonamide]
fold induction at 10 µg/mL (beta amyloid production; Conc 10 μg/ml): 1.88 | (%)APPI Toxicity (CHO-K1 cells; Conc 10 μg/ml): 1 (1=non-toxic)

C=CC(O)[C@@H](NS(=O)(=O)c1ccc(Br)cc1)[C@@H](C)CC (stereo partly drawn) [Example 151, 4-bromo-N-{(1S)-2-hydroxy-1-[(1S)-1-methylpropyl]-3-butenyl}benzenesulfonamide]
fold induction at 10 µg/mL (beta amyloid production; Conc 10 μg/ml): 2.9 | (%)APPI Toxicity (CHO-K1 cells; Conc 10 μg/ml): 1 (1=non-toxic)

C=CCC(O)[C@@H](NS(=O)(=O)c1ccc(Br)cc1)[C@@H](C)CC (stereo partly drawn) [Example 152, 4-bromo-N-{(1S)-2-hydroxy-1-[(1S)-1-methylpropyl]-4-pentenyl}benzenesulfonamide]
fold induction at 3 µg/mL (beta amyloid production; Conc 3 μg/ml): 1.6 | fold induction at 10 µg/mL (beta amyloid production; Conc 10 μg/ml): 6.64 | (%)APPI Toxicity (CHO-K1 cells; Conc 3 μg/ml): 1 (1=non-toxic) | (%)APPI Toxicity (CHO-K1 cells; Conc 10 μg/ml): 1 (1=non-toxic)

CCC(O)[C@@H](NS(=O)(=O)c1ccc(Br)cc1)[C@@H](C)CC (stereo partly drawn) [Example 153, 4-bromo-N-{(1S)-2-hydroxy-1-[(1S)-1-methylpropyl]butyl}benzenesulfonamide]
fold induction at 3 µg/mL (beta amyloid production; Conc 3 μg/ml): 2 | fold induction at 10 µg/mL (beta amyloid production; Conc 10 μg/ml): 4.77 | (%)APPI Toxicity (CHO-K1 cells; Conc 3 μg/ml): 1 (1=non-toxic) | (%)APPI Toxicity (CHO-K1 cells; Conc 10 μg/ml): 1 (1=non-toxic)

CC[C@H](C)[C@H](NS(=O)(=O)c1ccc(Br)cc1)C(O)c1ccc(F)cc1 (stereo partly drawn) [Example 154, 4-bromo-N-{(1S,2S)-1-[(4-fluorophenyl) (hydroxy)methyl]-2-methylbutyl}benzenesulfonamide]
fold induction at 10 µg/mL (beta amyloid production; Conc 10 μg/ml): 1.68 | (%)APPI Toxicity (CHO-K1 cells; Conc 10 μg/ml): 1 (1=non-toxic)

CC[C@H](C)[C@H](NS(=O)(=O)c1ccc(Br)cc1)C(O)c1ccc(Cl)cc1 (stereo partly drawn) [Example 155, 4-bromo-N-{(1S,2S)-1-[(4-chlorophenyl)(hydroxy)methyl]-2-methylbutyl}benzenesulfonamide]
fold induction at 10 µg/mL (beta amyloid production; Conc 10 μg/ml): 4.37 | (%)APPI Toxicity (CHO-K1 cells; Conc 10 μg/ml): 1 (1=non-toxic)

CC[C@H](C)[C@H](NS(=O)(=O)c1ccc(Br)cc1)C(O)C=C(C)C (stereo partly drawn) [Example 156, 4-bromo-N-{(1S)-2-hydroxy-4-methyl-1-[(1S)-1-methylpropyl]-3-pentenyl}benzenesulfonamide]
fold induction at 3 µg/mL (beta amyloid production; Conc 3 μg/ml): 1.52 | fold induction at 10 µg/mL (beta amyloid production; Conc 10 μg/ml): 2.01 | (%)APPI Toxicity (CHO-K1 cells; Conc 3 μg/ml): 1 (1=non-toxic) | (%)APPI Toxicity (CHO-K1 cells; Conc 10 μg/ml): 1 (1=non-toxic)

C=C(C)C(O)[C@@H](NS(=O)(=O)c1ccc(Br)cc1)[C@@H](C)CC (stereo partly drawn) [Example 157, 4-bromo-N-{(1S)-2-hydroxy-3-methyl-1-[(1S)-1-methylpropyl]-3-butenyl}benzenesulfonamide]
fold induction at 10 µg/mL (beta amyloid production; Conc 10 μg/ml): 1.96 | (%)APPI Toxicity (CHO-K1 cells; Conc 10 μg/ml): 1 (1=non-toxic)

CC[C@H](C)[C@H](NS(=O)(=O)c1ccc(Br)cc1)C(O)c1ccc(OC)cc1 (stereo partly drawn) [Example 158, 4-bromo-N-{(11 S,2S)-1-[hydroxy(4-methoxyphenyl)methyl]-2-methylbutyl}benzenesulfonamide]
APPI Fold Increase (beta amyloid production; Conc 10 μg/ml): 2.28 fold | APPI % of Example #98 (beta amyloid production; Conc 10 μg/ml): 101.49% | (%)APPI Toxicity (CHO-K1 cells; Conc 10 μg/ml): 1 (1=non-toxic)

C/C=C(\C)C(O)[C@@H](NS(=O)(=O)c1ccc(Br)cc1)[C@@H](C)CC (stereo partly drawn) [Example 159, 4-bromo-N-{(1S,3E)-2-hydroxy-3-methyl-1-[(1S)-1-methylpropyl]-3-pentenyl}benzenesulfonamide]
fold induction at 10 µg/mL (beta amyloid production; Conc 10 μg/ml): 2.11 | (%)APPI Toxicity (CHO-K1 cells; Conc 10 μg/ml): 1 (1=non-toxic)

CC[C@H](C)[C@H](NS(=O)(=O)c1ccc(Br)cc1)C(O)CCC1OCCCO1 (stereo partly drawn) [Example 160, 4-bromo-N-{(1S)-4-(1,3-dioxan-2-yl)-2-hydroxy-1-[(1S)-1-methylpropyl]butyl} benzenesulfonamide]
APPI Fold Increase (beta amyloid production; Conc 10 μg/ml): 1.66 fold | APPI % of Example #98 (beta amyloid production; Conc 10 μg/ml): 73.83% | (%)APPI Toxicity (CHO-K1 cells; Conc 10 μg/ml): 1 (1=non-toxic)

C=CCCC(O)[C@@H](NS(=O)(=O)c1ccc(Br)cc1)[C@@H](C)CC (stereo partly drawn) [Example 161, 4-bromo-N-{(1S)-2-hydroxy-1-[(1S)-1-methylpropyl]-5-hexenyl}benzenesulfonamide]
fold induction at 10 µg/mL (beta amyloid production; Conc 10 μg/ml): 1.69 | (%)APPI Toxicity (CHO-K1 cells; Conc 10 μg/ml): 1 (1=non-toxic)

CC#CC(O)[C@@H](NS(=O)(=O)c1ccc(Br)cc1)[C@@H](C)CC (stereo partly drawn) [Example 162, 4-bromo-N-{(1S)-2-hydroxy-1-[(1S)-1-methylpropyl]-3-pentynyl}benzenesulfonamide]
fold induction at 10 µg/mL (beta amyloid production; Conc 10 μg/ml): 1.63 | (%)APPI Toxicity (CHO-K1 cells; Conc 10 μg/ml): 1 (1=non-toxic)

CC[C@H](C)[C@H](NS(=O)(=O)c1ccc(Br)cc1)C(O)c1ccc(N(C)C)cc1 (stereo partly drawn) [Example 164, 4-bromo-N-{(1S,2S)-1-[[4-(dimethylamino)phenyl](hydroxy)methyl]-2-methylbutyl} benzenesulfonamide]
APPI Fold Increase (beta amyloid production; Conc 10 μg/ml): 3.53 fold | APPI % of Example #98 (beta amyloid production; Conc 10 μg/ml): 149.31% | (%)APPI Toxicity (CHO-K1 cells; Conc 10 μg/ml): 1 (1=non-toxic)

CC[C@H](C)[C@H](NS(=O)(=O)c1ccc(Cl)cc1)C(C)O (stereo partly drawn) [Example 165, 4-Chloro-N-[(1S,2S)-1-(hydroxyethyl)-2-methylbutyl]benzenesulfonamide]
fold induction at 10 µg/mL (beta amyloid production; Conc 10 μg/ml): 2.05 | (%)APPI Toxicity (CHO-K1 cells; Conc 10 μg/ml): 1 (1=non-toxic)

CCCCCCC(O)[C@@H](NS(=O)(=O)c1ccc(Cl)cc1)[C@@H](C)CC (stereo partly drawn) [Example 167, 4-chloro-N-{(1S)-2-hydroxy-1-[(1S)-1-methylpropyl]octyl}benzenesulfonamide]
fold induction at 10 µg/mL (beta amyloid production; Conc 10 μg/ml): 9.66 | (%)APPI Toxicity (CHO-K1 cells; Conc 10 μg/ml): 1 (1=non-toxic)

CCCCC(O)[C@@H](NS(=O)(=O)c1ccc(Cl)cc1)[C@@H](C)CC (stereo partly drawn) [Example 169, 4-chloro-N-{(1S)-2-hydroxy-1-[(1S)-1-methylpropyl]hexyl}benzenesulfonamide]
fold induction at 10 µg/mL (beta amyloid production; Conc 10 μg/ml): 2.85 | (%)APPI Toxicity (CHO-K1 cells; Conc 10 μg/ml): 1 (1=non-toxic)

CC[C@H](C)[C@H](NS(=O)(=O)c1ccc(Cl)cc1)C(O)C(C)C (stereo partly drawn) [Example 170, 4-chloro-N-{(1S)-2-hydroxy-3-methyl-1-[(1S)-1-methylpropyl]butyl}benzenesulfonamide]
fold induction at 10 µg/mL (beta amyloid production; Conc 10 μg/ml): 1.92 | (%)APPI Toxicity (CHO-K1 cells; Conc 10 μg/ml): 1 (1=non-toxic)

CC[C@H](C)[C@H](NS(=O)(=O)c1ccc(Cl)cc1)C(O)c1ccccc1C (stereo partly drawn) [Example 171, 4-chloro-N-{(1S,2S)-1-[hydroxy(2-methylphenyl)methyl]-2-methylbutyl}benzenesulfonamide]
fold induction at 10 µg/mL (beta amyloid production; Conc 10 μg/ml): 1.54 | (%)APPI Toxicity (CHO-K1 cells; Conc 10 μg/ml): 1 (1=non-toxic)

CC[C@H](C)[C@H](NS(=O)(=O)c1ccc(Cl)cc1)C(O)C(C)(C)C (stereo partly drawn) [Example 172, 4-chloro-N-{(1S)-2-hydroxy-3,3-dimethyl-1-[(1S)-1-methylpropyl]butyl}benzenesulfonamide]
fold induction at 10 µg/mL (beta amyloid production; Conc 10 μg/ml): 2.51 | (%)APPI Toxicity (CHO-K1 cells; Conc 10 μg/ml): 1 (1=non-toxic)

CC[C@H](C)[C@H](NS(=O)(=O)c1ccc(Cl)cc1)C(O)CC(C)C (stereo partly drawn) [Example 173, 4-chloro-N-{(1S)-2-hydroxy-4-methyl-1-[(1S)-1-methylpropyl]pentyl}benzenesulfonamide]
fold induction at 10 µg/mL (beta amyloid production; Conc 10 μg/ml): 2.56 | (%)APPI Toxicity (CHO-K1 cells; Conc 10 μg/ml): 1 (1=non-toxic)

C=CC(O)[C@@H](NS(=O)(=O)c1ccc(Cl)cc1)[C@@H](C)CC (stereo partly drawn) [Example 174, 4-chloro-N-{(1S)-2-hydroxy-1-[(1S)-1-methylpropyl]-3-butenyl}benzenesulfonamide]
fold induction at 10 µg/mL (beta amyloid production; Conc 10 μg/ml): 2.1 | (%)APPI Toxicity (CHO-K1 cells; Conc 10 μg/ml): 1 (1=non-toxic)

CCC(O)[C@@H](NS(=O)(=O)c1ccc(Cl)cc1)[C@@H](C)CC (stereo partly drawn) [Example 176, 4-chloro-N-{(1S)-2-hydroxy-1-[(1S)-1-methylpropyl]butyl}benzenesulfonamide]
fold induction at 10 µg/mL (beta amyloid production; Conc 10 μg/ml): 2.63 | (%)APPI Toxicity (CHO-K1 cells; Conc 10 μg/ml): 1 (1=non-toxic)

CC[C@H](C)[C@H](NS(=O)(=O)c1ccc(Cl)cc1)C(O)c1ccc(Cl)cc1 (stereo partly drawn) [Example 177, 4-chloro-N-{(1S,2S)-1-[(4-chlorophenyl) (hydroxy)methyl]-2-methylbutyl}benzenesulfonamide]
fold induction at 10 µg/mL (beta amyloid production; Conc 10 μg/ml): 1.95 | (%)APPI Toxicity (CHO-K1 cells; Conc 10 μg/ml): 1 (1=non-toxic)

CC[C@H](C)[C@H](NS(=O)(=O)c1ccc(Cl)cc1)C(O)c1ccc(OC)cc1 (stereo partly drawn) [Example 178, 4-chloro-N-{(1S,2S)-1-[hydroxy(4-methoxyphenyl)methyl]-2-methylbutyl}benzenesulfonamide]
fold induction at 10 µg/mL (beta amyloid production; Conc 10 μg/ml): 1.68 | (%)APPI Toxicity (CHO-K1 cells; Conc 10 μg/ml): 1 (1=non-toxic)

CC[C@H](C)[C@H](NS(=O)(=O)c1ccc(Cl)cc1)C(O)CCC1OCCCO1 (stereo partly drawn) [Example 179, 4-chloro-N-{(1S)-4-(1,3-dioxan-2-yl)-2-hydroxy-1-[(1S)-1-methylpropyl]butyl} benzenesulfonamide]
APPI Fold Increase (beta amyloid production; Conc 10 μg/ml): 1.63 fold | APPI % of Example #98 (beta amyloid production; Conc 10 μg/ml): 79.4% | (%)APPI Toxicity (CHO-K1 cells; Conc 10 μg/ml): 1 (1=non-toxic)

C=CCCC(O)[C@@H](NS(=O)(=O)c1ccc(Cl)cc1)[C@@H](C)CC (stereo partly drawn) [Example 180, 4-chloro-N-{(1S)-2-hydroxy-1-[(1S)-1-methylpropyl]-5-hexenyl}benzenesulfonamide]
fold induction at 10 µg/mL (beta amyloid production; Conc 10 μg/ml): 1.69 | (%)APPI Toxicity (CHO-K1 cells; Conc 10 μg/ml): 1 (1=non-toxic)

CC#CC(O)[C@@H](NS(=O)(=O)c1ccc(Cl)cc1)[C@@H](C)CC (stereo partly drawn) [Example 181, 4-chloro-N-{(1S)-2-hydroxy-1-[(1S)-1-methylpropyl]-3-pentynyl}benzenesulfonamide]
fold induction at 10 µg/mL (beta amyloid production; Conc 10 μg/ml): 1.76 | (%)APPI Toxicity (CHO-K1 cells; Conc 10 μg/ml): 1 (1=non-toxic)
